In patent US20090285791A1, “Regenerating and enhancing development of muscle tissue” (Sbarro Health Research Organization, Inc., priority 2008, published 2009):

Columns and labels:
C2C12 cells = assay: C2C12 myoblast differentiation in the presence of kinase inhibitor DRB; type: cell-based, mouse; conditions: C2C12 induced to differentiate
Experimental: C2C12 cells were grown in DMEM supplemented with 20% FBS (GM) or with 2% HS (DM).
Immunoprecipitations were performed with anti-MyoD antibody (Santa Cruz, Calif.) followed by the addition of protein A-sepharose. Beads were extensively washed and loading buffer without β-mercaptoethanol was added at 4° C. to work in non-denaturing conditions. Samples were resolved in PAA-Gels and transferred to a Hybond-ECL nitrocellulose (Amersham, IL). The blots were blocked with TBST containing 5% non-fat dry milk. Antibodies specific for cdk9, myogenin, MHC, RNAPolII, P-Serine2-CTD, Desmin and tubulin were used as described in Simone et al., 2002; Giacinti et al., 2006. Anti-rabbit and anti-mouse peroxidase conjugated and ECL detection system (Amersham, IL) were used for detection.
Since cdk9-55 activity, as well as cdk9-42 activity (Shore et al., Gene 307, 175-182, 2003; Liu and Herman, J. Cell. Physiol. 203, 251-260, 2005), could be inhibited by pharmacological blockade, C2C12 cells were induced to differentiate with the kinase specific inhibitor DRB.

cdk9-55 = cdk9-55 (Homo sapiens, UniProt P50750); conditions: Shore et al. 2003; Liu and Herman 2005; cited from earlier work
Sequence of cdk9-55 (P50750 1-489 isoform P50750-2): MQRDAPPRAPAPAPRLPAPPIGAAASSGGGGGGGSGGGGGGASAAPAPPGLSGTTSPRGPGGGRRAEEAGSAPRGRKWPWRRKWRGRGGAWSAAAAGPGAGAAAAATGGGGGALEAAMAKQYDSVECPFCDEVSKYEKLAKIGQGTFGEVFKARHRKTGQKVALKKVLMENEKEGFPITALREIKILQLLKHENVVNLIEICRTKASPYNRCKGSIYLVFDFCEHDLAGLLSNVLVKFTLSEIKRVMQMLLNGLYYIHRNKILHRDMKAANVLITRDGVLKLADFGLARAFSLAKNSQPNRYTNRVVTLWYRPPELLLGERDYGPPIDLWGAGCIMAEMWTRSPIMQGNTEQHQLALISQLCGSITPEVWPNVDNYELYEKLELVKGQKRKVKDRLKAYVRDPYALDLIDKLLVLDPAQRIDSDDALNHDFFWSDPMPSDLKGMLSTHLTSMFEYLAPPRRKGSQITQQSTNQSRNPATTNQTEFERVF
Sequence of cdk9-55 (O60563 whole entry partner): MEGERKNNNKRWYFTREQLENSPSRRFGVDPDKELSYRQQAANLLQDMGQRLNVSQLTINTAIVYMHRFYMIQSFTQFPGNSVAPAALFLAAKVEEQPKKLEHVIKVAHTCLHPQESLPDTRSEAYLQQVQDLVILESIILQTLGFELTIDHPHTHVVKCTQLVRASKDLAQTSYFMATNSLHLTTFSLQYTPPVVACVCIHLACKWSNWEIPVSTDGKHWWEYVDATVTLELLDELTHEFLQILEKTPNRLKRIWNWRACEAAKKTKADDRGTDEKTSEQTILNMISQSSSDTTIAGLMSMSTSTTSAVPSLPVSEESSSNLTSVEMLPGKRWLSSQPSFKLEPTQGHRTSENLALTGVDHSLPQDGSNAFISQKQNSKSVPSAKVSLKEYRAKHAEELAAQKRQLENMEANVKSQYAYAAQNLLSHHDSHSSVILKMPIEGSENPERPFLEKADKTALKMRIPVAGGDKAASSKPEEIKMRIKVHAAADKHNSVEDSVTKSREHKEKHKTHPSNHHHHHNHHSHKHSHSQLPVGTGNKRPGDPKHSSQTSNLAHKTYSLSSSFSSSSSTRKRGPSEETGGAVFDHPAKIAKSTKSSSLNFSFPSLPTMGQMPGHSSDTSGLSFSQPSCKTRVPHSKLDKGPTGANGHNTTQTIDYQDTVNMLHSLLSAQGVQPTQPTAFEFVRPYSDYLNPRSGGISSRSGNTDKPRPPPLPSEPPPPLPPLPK

For `OC[C@H]1O[C@@H](n2cnc3cc(Cl)c(Cl)cc32)[C@H](O)[C@@H]1O` [DRB, 5,6-dichloro-1-β-d-ribofuranosylbenzimidazole], the multinucleated myotubes (C2C12 cells; DRB 100 μM) was “absence of multinucleated myotubes”, the terminal differentiation (C2C12 cells; DRB 100 μM (FIG. 1D, 1E)) was “failed to undergo terminal differentiation” and the MHC levels (C2C12 cells; DRB 100 μM, immunoblot) was “low MHC levels”. For the same compound, the cdk9-55 kinase activity (cdk9-55) was “specifically inhibited”.
